# According to paper PMC12705613 (Frontiers in Microbiology, 2025):
# Where a name gives a salt, the structure may show the parent alone.
# Experiments:
# [1] = Body weight and blood pressure during ceftriaxone treatment; settings: ceftriaxone sodium 400 mg/kg/day orally, 2 weeks; WKYs and SHRs
# gut microbiota = assay: Fecal gut microbiota analysis after ceftriaxone treatment (16S rRNA, bacterial load); type: in vivo, rat; settings: ceftriaxone sodium 400 mg/kg/day orally, 2 weeks; feces of WKYs and SHRs
# Protocol: Fecal samples were freshly collected, rapidly frozen, and weighed before storage at −80 °C until use. The absolute quantification of bacterial 16S rRNA amplicon sequencing was conducted by Majorbio Bio-Pharm Technology Co. Ltd. in Shanghai, China. Total microbial genomic DNA was extracted using the E. Z. N. A.® Soil DNA Kit, following the manufacturer’s guidelines. The quality and concentration of the extracted DNA were assessed through 1.0% agarose gel electrophoresis and with a NanoDrop 2000 spectrophotometer. RT-PCR was performed using universal 16S primers (Forward: 5′-[sequence]-3′, Reverse: 5′-[sequence]-3′) ([Nadkarni et al., 2002]). The relative bacterial load was determined by normalizing the DNA content against the weight of feces from the untreated group.
# Fecal DNA was extracted utilizing the E. Z. N. A.® Soil DNA Kit. The extracted DNA was analyzed using a 1% agarose gel, and its concentration and purity were assessed with NanoDrop2000 spectrophotometer. […] The resulting PCR products were purified, quantified, and homogenized to create a sequencing library, which was commissioned to Majorbio Bio Pharm Technology Co. Ltd. The sequencing data were processed using the DADA2 algorithm in Qiime 2 to obtain amplicon sequence variants (ASVs), followed by the removal of chloroplast and mitochondrial sequences. […]
# [2] = Stability of the analytes in rat plasma at different storage conditions; type: in vitro ADME
# Protocol: Analysis of QC samples was performed according to a standard curve, which was obtained from freshly prepared calibration standard samples. The autosampler stability was determined by placing samples in the autosampler rack at 8 ℃ for 24 h. The freeze-thaw stability was evaluated after three complete freeze-thaw cycles (-80 ℃ to 25 ℃) on consecutive days. The short-term stability was determined after samples were exposed to room temperature for 6 h. The long-term stability was assessed after storing the samples at -80 ℃ for 30 days. The analytes were considered stable if the deviation between the mean measured concentration and the nominal concentration was within ± 15.0%.
# in vivo = settings: for MRT last: MRT0-t; for MRT inf: MRT 0-∞; for half-life: t1/2z
# Protocol: The pharmacokinetic study was described as follows.
# The UHPLC-TQ-MS analysis was conducted on an LC-30 AD ultra high-performance liquid chromatograph (Shimadzu, Japan) connected to an AB 4500 (AB Sciex, United States) Triple Quadrupole Mass Spectrometer with an ESI source. Chromatographic separation was achieved on an Acquity UHPLC HSS T3 column (100 × 2.1 mm, 1.8 μm) at 40 °C, and the eluent was aqueous formic acid (100:0.1, v/v) (A) and acetonitrile with formic acid (100:0.1, v/v) (B) at a flow rate of 0.3 mL min^−1. Gradient elution differs in the calculation of residual content and pharmacokinetic experiments. MRM mode was employed. Data processing was performed using Analyst Software (AB Sciex). The UHPLC-TQ-MS method validation was conducted in terms of selectivity, linearity, carryover, accuracy and precision, matrix effect, extraction recovery, dilution integrity, and stability under various conditions, which was performed in line with the FDA guidelines for bioanalytical assays. More details were described in the Supplementary material method.
# The comparisons of the relative abundance of the genera between different groups were performed using the Wilcoxon rank-sum test. Comparisons between WKY and SHRs before and after CRO treatment were conducted using either a t-test or one-way ANOVA, with p values < 0.05 considered statistically significant. […] Graphs were created using GraphPad Prism 8.0 software.
# For the determination of drug remaining contents in the supernatant, the gradient elution was as follows: 0.1–0.5 min at 45% B; 0.5–1.0 min at 45–65% B; 1.5–4.0 min at 65–85% B; 4.0–4.5 min at 85% B; 4.5–4.6 min at 85%–45% B; 4.6–5.0 min at 45% B. For pharmacokinetics, the gradient elution was performed as follows: 0–0.5 min at 30% B; 0.5–1.5 min at 30–45% B; 1.5–5.0 min at 45–60% B; 5.0–7.0 min at 60–80% B; 7.0–8.0 min at 80% B; 8.1–10.0 min at 30% B. The injection volume was 5 μ L. The multiple reaction monitoring (MRM) mode was used to detect analytes and IS in the positive ion mode. The mass spectrometry parameters were set as follows: ion spray voltage was 5500 V, turbo spray temperature (TEM) of 550℃; nebulizer gas (gas 1) of 50 psi; heater gas (gas 2) of 50 psi and curtain gas of 40 psi. Nitrogen was kept as the nebulizer and auxiliary gas.
# [3] = Metabolites detection in vivo in plasma, feces and urine (UHPLC-Q-TOF-MS); set-up: species or system rat; settings: single oral losartan potassium 20 mg/kg
# Protocol: For urine and feces, cumulative samples were collected over the following time intervals: 0–4, 4–8, 8–12, and 12–24 h after administration. The processing of the biological samples can be found in the Supplementary material.
# The biological samples were processed as follows: For plasma, a total of 400 μL of pooled plasma was mixed by combining 50 μL aliquots from each time point. A 100 μL aliquot was mixed with 300 μL of methanol, vortexed for one minute, and centrifuged at 5,000 rpm for 10 minutes at 4°C [1]. In the case of urine, 1 mL was centrifuged at 4,000 rpm for 20 minutes at 4°C, and the supernatant was mixed with 2 mL of methanol, vortexed for one minute, and centrifuged at 12,000 rpm for 10 minutes at 4°C [2]. For fecal samples, 1.0 g of homogenized feces was extracted with 4 mL of methanol, sonicated in an ice-water bath for 20 minutes, and then centrifuged at 12,000 rpm for 10 minutes at 4°C [3]. Supernatants from the plasma, urine, and fecal extracts were evaporated under nitrogen gas, redissolved in methanol, and transferred to liquid chromatography vials. Samples were analyzed using UHPLC-Q-TOF-MS/MS for metabolite profiling.
# [4] = set-up: method as in Yoo et al., 2016; settings: ref Yoo et al., 2016; cited from earlier work
# [5] = SHR, rat, in vivo, po, 20 mg/kg
# [6] = WKY, rat, in vivo, po, 20 mg/kg
compound,measurement,setting,value
"CO/N=C(\C(=O)N[C@@H]1C(=O)N2C(C(=O)O)=C(CSc3nc(=O)c(=O)[nH]n3C)CS[C@H]12)c1csc(N)n1 [CRO, ceftriaxone disodium salt hemiheptahydrate]","Body weight, CRO-treated vs untreated",[1],no differences in body weight
same,"α-diversity (Chao1, Shannon index) and bacterial abundance",gut microbiota,significant reduction
CCCCc1nc(Cl)c(C=O)n1Cc1ccc(-c2ccccc2-c2nn[nH]n2)cc1 [E-3179],Stability RE,"[2]; autosampler for 24 h (8 ℃), high nominal conc. (losartan 8000, E-3174 4000, E-3179 1600 ng/mL)",2.34%
same,Stability RE,"[2]; autosampler for 24 h (8 ℃), low nominal conc. (losartan 0.2, E-3174 10, E-3179 0.4 ng/mL)",2.96%
same,Stability RE,"[2]; autosampler for 24 h (8 ℃), middle nominal conc. (losartan 2000, E-3174 1000, E-3179 400 ng/mL)",12.05%
same,Stability RE,"[2]; room temperature for 6 h, high nominal conc. (losartan 8000, E-3174 4000, E-3179 1600 ng/mL)",-10.69%
same,Stability RE,"[2]; room temperature for 6 h, low nominal conc. (losartan 0.2, E-3174 10, E-3179 0.4 ng/mL)",-2.22%
same,Stability RE,"[2]; room temperature for 6 h, middle nominal conc. (losartan 2000, E-3174 1000, E-3179 400 ng/mL)",4.87%
same,Stability RE,"[2]; three freeze-thaw cycles, high nominal conc. (losartan 8000, E-3174 4000, E-3179 1600 ng/mL)",6.66%
same,Stability RE,"[2]; three freeze-thaw cycles, low nominal conc. (losartan 0.2, E-3174 10, E-3179 0.4 ng/mL)",2.96%
same,Stability RE,"[2]; three freeze-thaw cycles, middle nominal conc. (losartan 2000, E-3174 1000, E-3179 400 ng/mL)",2.84%
same,Stability RE,"[2]; −80°C for 30 days, high nominal conc. (losartan 8000, E-3174 4000, E-3179 1600 ng/mL)",7.58%
same,Stability RE,"[2]; −80°C for 30 days, low nominal conc. (losartan 0.2, E-3174 10, E-3179 0.4 ng/mL)",3.27%
same,Stability RE,"[2]; −80°C for 30 days, middle nominal conc. (losartan 2000, E-3174 1000, E-3179 400 ng/mL)",9.16%
same,AUC0-∞,in vivo; [5],900.54 ± 226.29 ng·h/mL
same,AUC(0-t),in vivo; [5],850.57 ± 189.22 ng·h/mL
same,Cmax,in vivo; [5],143.43 ± 108.27 ng/mL
same,MRT0-t,in vivo; [5],7.68 ± 1.38 h
same,MRT 0-∞,in vivo; [5],11.33 ± 2.86 h
same,Tmax,in vivo; [5],1.96 ± 1.15 h
same,t1/2z,in vivo; [5],5.61 ± 3.15 h
same,MRT last,in vivo; [5],6.99 ± 1.41 h
same,MRT inf,in vivo; [5],9.57 ± 2.83 h
same,Tmax,"in vivo; SHR, rat, in vivo, po, 20 mg/kg, Tmax",1.83 ± 1.69 h
same,half-life,in vivo; [5],5.51 ± 2.46 h
same,Decrease of AUC0-∞,"in vivo; SHRs compared to WKYs, losartan potassium 20 mg/kg intragastric",36.13%
same,Cmax,in vivo; [6],310.47 ± 243.53 ng/mL
same,MRT0-t,in vivo; [6],10.46 ± 1.03 h
same,MRT 0-∞,in vivo; [6],15.25 ± 4.02 h
same,t1/2z,in vivo; [6],5.29 ± 1.44 h
same,AUC(0-t),"in vivo; WKY, rat, in vivo, po, 20 mg/kg, AUC0-t",1340 ± 741 ng·h/mL
same,AUC(0-inf),"in vivo; WKY, rat, in vivo, po, 20 mg/kg, AUC0-∞",1410 ± 741 ng·h/mL
same,MRT last,in vivo; [6],6.18 ± 1.58 h
same,MRT inf,in vivo; [6],8.79 ± 4.19 h
same,half-life,in vivo; [6],5.75 ± 2.71 h
same,"Abundance in feces and plasma, SHRs vs WKYs",[3],lower in SHRs than in WKYs
same,"Abundance in urine, SHRs vs WKYs",[3],more abundant in urine
CCOC(=O)C1=C(COCCN)NC(C)=C(C(=O)OC)C1c1ccccc1Cl (centres unmarked) [amlodipine],Systemic exposure in antibiotic-treated rats vs controls,[4],significantly elevated
